Experimental findings from patent publication US12521393B2, “Cytotoxicity targeting chimeras for CCR2-expressing cells” (GLAXOSMITHKLINE INTELLECTUAL PROPERTY DEVELOPMENT LIMITED, priority 2021, dated 2026) are described below.

In experiment [1] the target is human alpha1 nicotinic acetylcholine (nACh) receptor (Homo sapiens, UniProt P02708). The experiment in a line: Nicotinic acetylcholine receptor antagonism assay, IONFlux automated patch clamp (Example 203). Format: cell-based. The method, then:
Cells expressing human alpha1 nicotinic acetylcholine (nACh) receptor (nAChR) were washed and dissociated using Trypsin containing buffer. Cells were then washed and seeded at a density of 3-5 million cells/mL and allowed to grow for 3 days. Then, 60-80 μL of cells were added to plates and incubated with dose response of an ARM compound of Formula (I) with a top concentration of either 10 μM or 100 μM. The receptor was then stimulated via addition of acetylcholine (ACh) and activation of the receptor was monitored via the IONFlux automated patch clamp system. IonFlux Data Analyzer software was utilized to perform leak subtraction and measure (min) peak current amplitude.
Data processing: (1) Current values recorded for vehicle only applications in individual traps/patterns were subtracted from corresponding current amplitude values for control, test article and control+test article. (2) Control response was calculated as % of the average response of the 3rd out of total 3 ACh (10 mM) applications alone. In rare situations, if the 3rd ACh response was obscured due to technical artifacts, the 2nd and/or 1st ACh (10 mM) application was considered as control. The peak current amplitude generated in the presence of each test article concentration was then used to calculate the % inhibition as compared to control response (10 mM ACh alone). These estimates were further corrected for vehicle response and run down corrected by normalizing with time matched control responses (10 mM ACh alone). The corrected percentages were then fit with a non-linear function in GraphPad Prism 6 (or later versions) to determine the IC50.
Exclusion criteria: (i) any n's with poor recording quality, (ii) control current amplitude <500 pA or (iii) significant outliers, as determined by the Grubbs test.
ARMs compounds of Formula (I) of the invention were tested for antagonism of the nAChR in the above assay in […] experimental runs and the results are shown in Table 7 below. Antagonistic activity of the compounds of Formula (I) of the invention is reported as an IC50 value (half maximal inhibitory concentration) and the maximum percentage antagonism observed at the highest concentration of compound of Formula (I) tested, as indicated in Table 7. For compounds tested in more than one experimental run, the IC50 value is reported as an average
In general terms: The patch-clamp technique gives a direct electrical read-out from membranes.

Experiment [2] has as its system CCR2 expressing cells (CD11b+Ly6c+Hi) in peripheral blood. The experiment in a line: In vivo depletion assay, flow cytometry of peripheral blood (Example 201). Set-up: species or system human CCR2 knock-in mice (C57 background). As to conditions: hCCR2 knock-in mice, IV 0.1 mpk compound + 10 mpk anti-cotinine antibody (SEQ ID NO: 13/14), peripheral blood at 48 hr. The method, then:
Stock solution preparation. Stock solutions of compounds of Formula (I) were prepared at 20 mg/mL and 100 mg/mL in […] for PK/PD and dose tolerability studies respectively. Stock solutions were stored at […] until further usage. on the day of experiment, the stock Solution of the compound of Formula (I) was removed from storage at […] and thawed at room temperature. Anti-cotinine antibody having a heavy chain sequence of SEC ID NO: 13 and a light chain sequence of SEQ ID NO: 14 (rabbit variable region sequence with mouse IgG2a Fc domain), if required was removed from storage at −80° C. and thawed at room temperature. Antibody vials were immediately transferred into wet ice after thawing. Compounds of Formula (I) were further diluted in DMSO as per experimental requirements.
The formulation composition was Saline: DMSI: PBS.
Saline was added based on the quantity required and then stock solution of the compound of Formula (I) prepared in DMSO, followed by addition of antibody in PBS. Formulations were incubated at room temperature for 30 minutes before administration to the mouse. DMSO was used at 1 to % (v/v) in the final formulation.
After bleeding, each mouse was sacrificed by cervical dislocation. […] Flow Cytometry Analysis:
CCR2 depletion in peripheral blood was determined by flow cytometry. Briefly, peripheral blood was collected from all animals at the end of study termination and processed. Blood samples were lysed using 1×RBC Lysis buffer and the resulting cell pellet was washed twice in FACS buffer (HBSS containing 5% FBS). Cells were subjected to Fc blocking using mouse Fc block from Biolegend (Trustain, anti-mouse CD16/32, Cat: 101319) to block non-specific binding followed by surface staining for immune markers (CD45, CD3, CD11 b, Ly6C, human CCR2). Surface staining was done for 30 minutes in ice and cells were washed twice to remove unbound antibodies. Cells were stained with 7AAD to determine viability and acquired on BD FACSVerse flow cytometer. Appropriate FMO controls and single-color controls were included in the experiment for gating and compensation respectively.
Percent depletion of CD11 b+Ly6c+Hi cells and CCR2 expression for the different treatment groups was determined.
A general note: In flow cytometry, cells or beads pass a laser one at a time.

Experiment [3] has as its system endogenous target monocytes in human PBMC. The experiment in a line: PBMC ex vivo monocyte depletion flow cytometry assay (Example 200). As to conditions: with anti-cotinine antibody (SEQ ID NO: 11/12), 18-24 hours, EC50 in molar, read-out: Ex Vivo Depletion Assay pEC50 (converted). The experiment is classed as cell-based. The essentials: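 Monocyte depletion is reported as pEC50, averaged or given individually across runs, and read by flow cytometry staining CD45, CD14 and CD4 with a viability dye. Compounds, diluted four-fold over 11 points from 1 mM DMSO stocks, were combined with 30 μg/mL Fc-enhanced anti-cotinine antibody and human PBMC, then incubated 18-24 h at 37° C.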

Sequence of human alpha1 nicotinic acetylcholine (nACh) receptor (P02708 21-457): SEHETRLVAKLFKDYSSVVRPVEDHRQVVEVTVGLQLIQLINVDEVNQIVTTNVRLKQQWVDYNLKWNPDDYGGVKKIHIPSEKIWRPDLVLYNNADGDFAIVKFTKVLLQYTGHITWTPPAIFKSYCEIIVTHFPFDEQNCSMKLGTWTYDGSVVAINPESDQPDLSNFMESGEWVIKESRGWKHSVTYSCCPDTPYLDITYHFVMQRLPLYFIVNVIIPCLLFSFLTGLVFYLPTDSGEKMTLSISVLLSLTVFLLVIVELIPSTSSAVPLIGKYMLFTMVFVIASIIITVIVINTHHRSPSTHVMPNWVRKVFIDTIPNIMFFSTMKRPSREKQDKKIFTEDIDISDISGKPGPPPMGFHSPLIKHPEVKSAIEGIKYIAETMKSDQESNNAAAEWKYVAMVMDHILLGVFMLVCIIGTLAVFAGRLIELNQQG
Sequence of human alpha1 nicotinic acetylcholine (nACh) receptor (P11230 24-501 partner): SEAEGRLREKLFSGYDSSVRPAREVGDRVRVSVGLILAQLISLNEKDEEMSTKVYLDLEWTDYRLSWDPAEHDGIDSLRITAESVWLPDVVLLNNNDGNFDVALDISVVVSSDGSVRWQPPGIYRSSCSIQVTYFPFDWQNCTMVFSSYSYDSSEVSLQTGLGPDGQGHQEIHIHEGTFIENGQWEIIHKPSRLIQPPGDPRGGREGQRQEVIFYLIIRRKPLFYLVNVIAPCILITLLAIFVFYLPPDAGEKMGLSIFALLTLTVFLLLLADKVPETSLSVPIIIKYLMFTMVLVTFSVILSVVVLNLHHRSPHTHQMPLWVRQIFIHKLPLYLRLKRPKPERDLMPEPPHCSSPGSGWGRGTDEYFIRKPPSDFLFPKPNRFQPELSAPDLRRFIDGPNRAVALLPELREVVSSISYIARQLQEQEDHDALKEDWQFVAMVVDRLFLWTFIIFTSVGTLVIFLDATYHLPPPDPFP
Sequence of human alpha1 nicotinic acetylcholine (nACh) receptor (Q07001 22-517 partner): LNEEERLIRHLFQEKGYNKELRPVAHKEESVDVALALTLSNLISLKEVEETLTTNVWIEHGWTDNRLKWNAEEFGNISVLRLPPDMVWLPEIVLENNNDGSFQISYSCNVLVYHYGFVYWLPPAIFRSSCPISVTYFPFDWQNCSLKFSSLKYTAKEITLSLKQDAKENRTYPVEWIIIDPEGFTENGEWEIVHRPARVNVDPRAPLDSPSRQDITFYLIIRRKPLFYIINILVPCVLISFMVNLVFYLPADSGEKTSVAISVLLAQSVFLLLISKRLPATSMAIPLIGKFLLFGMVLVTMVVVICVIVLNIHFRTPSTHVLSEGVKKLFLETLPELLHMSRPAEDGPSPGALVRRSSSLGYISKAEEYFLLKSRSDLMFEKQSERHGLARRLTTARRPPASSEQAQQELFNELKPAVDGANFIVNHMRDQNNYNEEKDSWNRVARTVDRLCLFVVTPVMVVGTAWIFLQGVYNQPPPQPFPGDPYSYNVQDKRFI

For the compound `CC(C)N(C)[C@@H]1CC[C@H](N2CC[C@H](Nc3ncnc4ccc(C(F)(F)F)cc34)C2=O)[C@H](NC(=O)[C@H]2C[C@@H](NC(=O)CCCO[C@H]3CC[C@H](OCCNC(=O)[C@H]4CC(=O)N(C)[C@@H]4c4cccnc4)CC3)C2)C1` [Example 9, (2S,3S)-N-(2-(((1S,4S)-4-(4-(((1S,3S)-3-(((1R,2S,5R)-5-(Isopropyl(methyl)amino)-2-((S)-2-oxo-3-((6-(trifluoromethyl)quinazolin-4-yl)amino)pyrrolidin-1-yl)cyclohexyl)carbamoyl)cyclobutyl)amino)-4-oxobutoxy)cyclohexyl)oxy)ethyl)-1-methyl-5-oxo-2-(pyridin-3-yl)pyrrolidine-3-carboxamide], the IC50 (commonly the concentration that inhibits the measured activity by half) in experiment [1] (antagonism of ACh-stimulated human alpha1 nAChR current, patch clamp) worked out at 82000 nM. Further, in experiment [1] (maximum percentage antagonism at maximum concentration tested 100 μM, read-out: Maximum Response), the Emax at 100 µM was found to be 53.9%. As to `CCN1C(=O)C[C@H](C(=O)NCCO[C@H]2CC[C@H](OCCCC(=O)N[C@H]3CC[C@H](C(=O)N[C@@H]4C[C@H](N(C)C(C)C)CC[C@@H]4N4CC[C@H](Nc5ncnc6ccc(C(F)(F)F)cc56)C4=O)CC3)CC2)[C@H]1c1cccnc1` [Example 11, (2S,3S)-1-ethyl-N-(2-(((1,4-trans)-4-(4-(((1,4-trans)-4-(((1R,2S,5R)-5-(isopropyl(methyl)amino)-2-((S)-2-oxo-3-((6-(trifluoromethyl)quinazolin-4-yl)amino)pyrrolidin-1-yl)cyclohexyl)carbamoyl)cyclohexyl)amino)-4-oxobutoxy)cyclohexyl)oxy)ethyl)-5-oxo-2-(pyridin-3-yl)pyrrolidine-3-carboxamide], in experiment [2], the “% Depletion of CCR2 expressing cells” value is reported as 91.57%. Same read-out and setting: under `CC(C)N(C)[C@@H]1CC[C@H](N2CC[C@H](Nc3ncnc4ccc(C(F)(F)F)cc34)C2=O)[C@H](NC(=O)[C@H]2CC[C@H](NC(=O)CCCO[C@H]3CC[C@H](OCCNC(=O)[C@H]4CC(=O)N(C5CCC5)[C@@H]4c4cccnc4)CC3)CC2)C1` [Example 14, (2S,3S)-1-cyclobutyl-N-(2-(((trans)-4-(4-(((trans)-4-(((1R,2S,5R)-5-(isopropyl(methyl)amino)-2-((S)-2-oxo-3-((6-(trifluoromethyl)quinazolin-4-yl)amino)pyrrolidin-1-yl)cyclohexyl)carbamoyl)cyclohexyl)amino)-4-oxobutoxy)cyclohexyl)oxy)ethyl)-5-oxo-2-(pyridin-3-yl)pyrrolidine-3-carboxamide] stands 47.24%; under `CC(C)(C)N[C@@H]1CC[C@H](N2CC[C@H](Nc3ncnc4ccc(C(F)(F)F)cc34)C2=O)[C@H](NC(=O)[C@H]2CC[C@H](NC(=O)CCCO[C@H]3CC[C@H](OCCNC(=O)[C@H]4CC(=O)N(C5CCC5)[C@@H]4c4cccnc4)CC3)CC2)C1` [Example 15, (2S,3S)-N-(2-(((1R,4S)-4-(4-(((1R,4R)-4-(((1R,2S,5R)-5-(tert-butylamino)-2-((S)-2-oxo-3-((6-(trifluoromethyl)quinazolin-4-yl)amino)pyrrolidin-1-yl)cyclohexyl)carbamoyl)cyclohexyl)amino)-4-oxobutoxy)cyclohexyl)oxy)ethyl)-1-cyclobutyl-5-oxo-2-(pyridin-3-yl)pyrrolidine-3-carboxamide], 92.6%.

With `CC(C)N(C)[C@@H]1CC[C@H](N2CC[C@H](Nc3ncnc4ccc(C(F)(F)F)cc34)C2=O)[C@H](NC(=O)C[C@H]2CC[C@H](NC(=O)CCOCCOCCOCCNC(=O)[C@H]3CC(=O)N(C)[C@@H]3c3cccnc3)CC2)C1` [Example 33, (2S,3S)-N-(2-(2-(2-(3-(((1R,4r)-4-(2-(((1R,2S,5R)-5-(Isopropyl(methyl)amino)-2-((S)-2-oxo-3-((6-(trifluoromethyl)quinazolin-4-yl)amino)pyrrolidin-1-yl)cyclohexyl)amino)-2-oxoethyl)cyclohexyl)amino)-3-oxopropoxy)ethoxy)ethoxy)ethyl)-1-methyl-5-oxo-2-(pyridin-3-yl)pyrrolidine-3-carboxamide], the EC50 in experiment [3] was 0.316 nM. Further, the “% Depletion of CCR2 expressing cells” value in experiment [2] is reported as 89%. With `CN1C(=O)C[C@H](C(=O)NCCOCCOCCOCCOCCOCCOCCOCCOCCC(=O)N[C@@H]2C[C@H](NC(C)(C)C)CC[C@@H]2N2CC[C@H](Nc3ncnc4ccc(C(F)(F)F)cc34)C2=O)[C@H]1c1cccnc1` [Example 36, (2S,3S)-N-(27-(((1R,2S,5R)-5-(tert-Butylamino)-2-((S)-2-oxo-3-((6-(trifluoromethyl)quinazolin-4-yl)amino)pyrrolidin-1-yl)cyclohexyl)amino)-27-oxo-3,6,9,12,15,18,21,24-octaoxaheptacosyl)-1-methyl-5-oxo-2-(pyridin-3-yl)pyrrolidine-3-carboxamide], the “% Depletion of CCR2 expressing cells” value in experiment [2] was determined as 83.33%. Consider `CN1C(=O)C[C@H](C(=O)NCCC(=O)NCCOCCOCCC(=O)N[C@H]2CC[C@@H](C(=O)N[C@@H]3C[C@H](NC(C)(C)C)CC[C@@H]3N3CC[C@H](Nc4ncnc5ccc(C(F)(F)F)cc45)C3=O)CC2)[C@H]1c1cccnc1` [Example 51, (2S,3S)-N-(3-((2-(2-(3-(((1S,4s)-4-(((1R,2S,5R)-5-(tert-Butylamino)-2-((S)-2-oxo-3-((6-(trifluoromethyl)quinazolin-4-yl)amino)pyrrolidin-1-yl)cyclohexyl)carbamoyl)cyclohexyl)amino)-3-oxopropoxy)ethoxy)ethyl)amino)-3-oxopropyl)-1-methyl-5-oxo-2-(pyridin-3-yl)pyrrolidine-3-carboxamide], for which the EC50 in experiment [3] was 0.631 nM. For the same compound, the “% Depletion of CCR2 expressing cells” value in experiment [2] came out at 97.32%. As for `CC(C)N(C)[C@@H]1CC[C@H](N2CC[C@H](Nc3ncnc4ccc(C(F)(F)F)cc34)C2=O)[C@H](NC(=O)[C@H]2CC[C@@H](NC(=O)CNC(=O)COCCOCCNC(=O)[C@H]3CC(=O)N(C)[C@@H]3c3cccnc3)CC2)C1` [Example 81, (2S,3S)-N-(2-(2-(2-((2-(((1S,4s)-4-(((1R,2S,5R)-5-(Isopropyl(methyl)amino)-2-((S)-2-oxo-3-((6-(trifluoromethyl)quinazolin-4-yl)amino)pyrrolidin-1-yl)cyclohexyl)carbamoyl)cyclohexyl)amino)-2-oxoethyl)amino)-2-oxoethoxy)ethoxy)ethyl)-1-methyl-5-oxo-2-(pyridin-3-yl)pyrrolidine-3-carboxamide], in experiment [2], the “% Depletion of CCR2 expressing cells” value is listed as 94%.
